Laboratory results reported in ChEMBL document CHEMBL3779788, “Facile synthesis of 1,3-thiazolidin-4-ones as antitubercular agents” (Bioorg Med Chem Lett, 2016).
≈ marks a conversion by molar mass, not a printed value.

How the values were obtained:
[1] = Cytotoxicity against human HCT116 cells at 3 ug/mL by MTT assay; type: cell-based, HCT-116; conditions: read-out: INH
[2] = Cytotoxicity against human MCF7 cells at 10 ug/mL by MTT assay; type: cell-based; conditions: read-out: INH
[3] = tested on: Mycobacterium bovis BCG str. ATCC 35743; assay: (§1) Antitubercular activity against dormant Mycobacterium bovis BCG ATCC 35743 by NR assay; type: functional
[4] = as §1; type: functional, Mycobacterium bovis BCG str. ATCC 35743
[5] = tested on: Mycobacterium bovis BCG str. ATCC 35743; assay: Antitubercular activity against dormant Mycobacterium bovis BCG ATCC 35743 assessed as growth inhibition at 10 ug/mL by NR assay; type: functional
[6] = tested on: Mycobacterium tuberculosis; assay: Antitubercular activity against dormant Mycobacterium tuberculosis H37Ra by XTT reduction menadione assay; type: functional, organism-based
[7] = Cytotoxicity against human HCT116 cells after 48 and 72 hrs by MTT assay; type: cell-based, HCT-116; conditions: for GI50 at 72 h: HCT116 cells; for GI90: hct-116, 72 h
[8] = (§2) Cytotoxicity against human A549 cells after 48 and 72 hrs by MTT assay; type: cell-based; conditions: A549 cells
A549 = assay: as §2; type: cell-based; conditions: a549, 72 h
[9] = Cytotoxicity against human HCT116 cells at 30 ug/mL by MTT assay; type: cell-based, HCT-116; conditions: read-out: INH
[10] = Cytotoxicity against human MCF7 cells at 3 ug/mL by MTT assay; type: cell-based; conditions: read-out: INH
[11] = tested on: Mycobacterium bovis BCG str. ATCC 35743; assay: Antitubercular activity against dormant Mycobacterium bovis BCG ATCC 35743 assessed as growth inhibition at 3 ug/mL by NR assay; type: functional
[12] = Cytotoxicity against human A549 cells at 30 ug/mL by MTT assay; type: cell-based; conditions: read-out: INH
[13] = (§3) Cytotoxicity against human MCF7 cells after 48 and 72 hrs by MTT assay; type: cell-based; conditions: MCF7 cells
MCF7 = assay: as §3; type: cell-based; conditions: mcf7, 72 h
[14] = tested on: Mycobacterium tuberculosis; assay: Antitubercular activity against dormant Mycobacterium tuberculosis H37Ra assessed as growth inhibition at 30 ug/mL by XTT reduction menadione assay; type: functional; conditions: read-out: GI
Pseudomonas = assay: Antibacterial activity against Pseudomonas after 18 hrs by broth dilution method; type: functional, organism-based
[15] = Cytotoxicity against human MCF7 cells at 30 ug/mL by MTT assay; type: cell-based; conditions: read-out: INH
Bacillus subtilis = assay: Antibacterial activity against Bacillus subtilis after 18 hrs by broth dilution method; type: functional, organism-based
[16] = Cytotoxicity against human HCT116 cells at 10 ug/mL by MTT assay; type: cell-based, HCT-116; conditions: read-out: INH
[17] = tested on: Mycobacterium bovis BCG str. ATCC 35743; assay: Antitubercular activity against dormant Mycobacterium bovis BCG ATCC 35743 assessed as growth inhibition at 30 ug/mL by NR assay; type: functional
[18] = tested on: Mycobacterium tuberculosis; assay: Antitubercular activity against dormant Mycobacterium tuberculosis H37Ra assessed as growth inhibition at 10 ug/mL by XTT reduction menadione assay; type: functional; conditions: read-out: GI
[19] = Cytotoxicity against human A549 cells at 3 ug/mL by MTT assay; type: cell-based; conditions: read-out: INH
Escherichia coli = assay: Antibacterial activity against Escherichia coli after 18 hrs by broth dilution method; type: functional, organism-based
[20] = Cytotoxicity against human A549 cells at 10 ug/mL by MTT assay; type: cell-based; conditions: read-out: INH
[21] = tested on: Mycobacterium tuberculosis; assay: Antitubercular activity against dormant Mycobacterium tuberculosis H37Ra assessed as growth inhibition at 3 ug/mL by XTT reduction menadione assay; type: functional; conditions: read-out: GI
Staphylococcus aureus = assay: Antibacterial activity against Staphylococcus aureus after 18 hrs by broth dilution method; type: functional, organism-based

SMILES	cytotoxicity at 3 ug/mL [1]	cytotoxicity at 10 ug/mL [2]	IC90 [3]	IC50 [4]	growth inhibition (GI) [5]	IC50 [6]	IC90 [6]	GI50 at 72 h [7]	GI90 [7]	GI50 at 72 h [8]	GI90 (A549)	cytotoxicity at 30 ug/mL [9]	cytotoxicity at 3 ug/mL [10]	growth inhibition (GI) [11]	cytotoxicity at 30 ug/mL [12]	GI50 at 72 h [13]	GI90 (MCF7)	inhibition of growth at 30 µg/mL [14]	IC50 (Pseudomonas)	MIC (Pseudomonas)	also measured
O=C1CSC(c2ccc(Br)cc2)N1c1ccccc1 (stereo unspecified)	2.4%	23.8%	> 30 µg/mL	> 30 µg/mL	44.4%	8.9 µg/mL (≈ 26.6 µM)	25.2 µg/mL (≈ 75.4 µM)	> 100 µg/mL	> 100 µg/mL	> 100 µg/mL	> 100 µg/mL	10.1%	22.1%	48.7%	0%	> 100 µg/mL	> 100 µg/mL	97.7%	> 30 µg/mL	> 30 µg/mL	cytotoxicity at 30 ug/mL [15]: 32.8%; IC50 (Bacillus subtilis): > 30 µg/mL; MIC (Bacillus subtilis): > 30 µg/mL; cytotoxicity at 10 ug/mL [16]: 4.9%; growth inhibition (GI) [17]: 48.8%; inhibition of growth at 10 µg/mL [18]: 66.4%; cytotoxicity at 3 ug/mL [19]: 0%; IC50 (Escherichia coli): > 30 µg/mL; MIC (Escherichia coli): > 30 µg/mL; cytotoxicity at 10 ug/mL [20]: 0%; inhibition of growth at 3 µg/mL [21]: -33.2%; IC50 (Staphylococcus aureus): > 30 µg/mL; MIC (Staphylococcus aureus): > 30 µg/mL
O=C1CSC(c2ccccc2)N1c1ccccc1 (stereo unspecified)	3.3%	5.3%	> 30 µg/mL	20.7 µg/mL (≈ 81.1 µM)	15.4%	> 30 µg/mL	> 30 µg/mL	> 100 µg/mL	> 100 µg/mL	> 100 µg/mL	> 100 µg/mL	16.8%	-4.2%	14.2%	0%	> 100 µg/mL	> 100 µg/mL	34.5%	> 30 µg/mL	> 30 µg/mL	cytotoxicity at 30 ug/mL [15]: 31.7%; IC50 (Bacillus subtilis): > 30 µg/mL; MIC (Bacillus subtilis): > 30 µg/mL; cytotoxicity at 10 ug/mL [16]: 3.2%; growth inhibition (GI) [17]: 80.7%; inhibition of growth at 10 µg/mL [18]: 31.7%; cytotoxicity at 3 ug/mL [19]: 0%; IC50 (Escherichia coli): > 30 µg/mL; MIC (Escherichia coli): > 30 µg/mL; cytotoxicity at 10 ug/mL [20]: 0%; inhibition of growth at 3 µg/mL [21]: 5%; IC50 (Staphylococcus aureus): > 30 µg/mL; MIC (Staphylococcus aureus): > 30 µg/mL
